Experiment: molar heat capacity at constant pressure
Details: 101.33 kPa, Small (less than 1 g) adiabatic calorimetry

CCCCCCCCCCCCCCCCn1cc[n+](C)c1.O=S(=O)([N-]S(=O)(=O)C(F)(F)F)C(F)(F)F
Details	molar heat capacity at constant pressure [J/K/mol]
240 K, Crystal 2	635.6
240.65 K, Crystal 2	637.6
242.87 K, Crystal 2	643.5
245.08 K, Crystal 2	650
247.28 K, Crystal 2	657
249.47 K, Crystal 2	663.5
250 K, Crystal 2	665.4
251.67 K, Crystal 2	671.1
253.85 K, Crystal 2	678.2
256.03 K, Crystal 2	685.8
258.19 K, Crystal 2	693.5
260 K, Crystal 2	700.6
260.35 K, Crystal 2	701.7
262.5 K, Crystal 2	710.5
264.64 K, Crystal 2	719.9
266.77 K, Crystal 2	729.9
268.89 K, Crystal 2	740.5
270 K, Crystal 2	745.5
271 K, Crystal 2	751.1
273.1 K, Crystal 2	761.1
275.18 K, Crystal 2	773.4
277.25 K, Crystal 2	786.9
279.3 K, Crystal 2	801
280 K, Crystal 2	806.6
281.34 K, Crystal 2	816.9
283.37 K, Crystal 2	834.5
285.38 K, Crystal 2	853.3
287.36 K, Crystal 2	875.7
289.32 K, Crystal 2	901.5
290 K, Crystal 2	909.7
291.26 K, Crystal 2	930.9
293.07 K, Crystal 2	958.5
293.16 K, Crystal 2	965
293.61 K, Crystal 2	968.5
294.12 K, Crystal 2	978.5
294.63 K, Crystal 2	990.3
295.02 K, Crystal 2	1004
295.14 K, Crystal 2	1002
295.64 K, Crystal 2	1014
296.14 K, Crystal 2	1027
296.64 K, Crystal 2	1039
296.85 K, Crystal 2	1050
297.14 K, Crystal 2	1053
297.63 K, Crystal 2	1068
298.11 K, Crystal 2	1082
298.15 K, Crystal 2	1084
298.6 K, Crystal 2	1098
298.63 K, Crystal 2	1103
299.08 K, Crystal 2	1113
299.55 K, Crystal 2	1129
300 K, Crystal 2	1146
300.03 K, Crystal 2	1146
300.36 K, Crystal 2	1161
300.49 K, Crystal 2	1161
300.96 K, Crystal 2	1177
301.42 K, Crystal 2	1193
301.88 K, Crystal 2	1207
302.1 K, Crystal 2	1219
302.34 K, Crystal 2	1222
302.79 K, Crystal 2	1235
303.24 K, Crystal 2	1248
303.69 K, Crystal 2	1253
303.84 K, Crystal 2	1262
304.13 K, Crystal 2	1267
304.58 K, Crystal 2	1271
305.02 K, Crystal 2	1273
305.47 K, Crystal 2	1274
305.5 K, Crystal 1	1274
305.5 K, Crystal 2	1274
305.56 K, Crystal 1	1278
305.91 K, Crystal 1	1275
306.36 K, Crystal 1	1271
306.8 K, Crystal 1	1269
307.24 K, Crystal 1	1268
307.28 K, Crystal 1	1272
307.69 K, Crystal 1	1266
308.14 K, Crystal 1	1261
308.58 K, Crystal 1	1257
309.01 K, Crystal 1	1254
309.03 K, Crystal 1	1251
309.48 K, Crystal 1	1242
309.93 K, Crystal 1	1229
310 K, Crystal 1	1229
310.39 K, Crystal 1	1187
310.81 K, Crystal 1	1097
310.86 K, Crystal 1	1054
311.36 K, Crystal 1	989.7
311.88 K, Crystal 1	984.4
312.39 K, Crystal 1	986.1
312.73 K, Crystal 1	995.5
312.9 K, Crystal 1	992
313.41 K, Crystal 1	997.9
313.91 K, Crystal 1	1011
314.42 K, Crystal 1	1032
314.68 K, Crystal 1	1051
316.51 K, Crystal 1	1261
319.25 K, Crystal 1	1044
319.25 K, Liquid	972
320 K, Liquid	972
320.76 K, Liquid	972.6
321.02 K, Liquid	972.6
322.55 K, Liquid	974.4
322.92 K, Liquid	974.4
324.34 K, Liquid	976.2
324.82 K, Liquid	975.6
326.13 K, Liquid	977.9
326.72 K, Liquid	977.3
327.92 K, Liquid	978.5
328.62 K, Liquid	979.7
329.71 K, Liquid	980.3
330 K, Liquid	981
330.52 K, Liquid	981.4
331.5 K, Liquid	982
332.43 K, Liquid	982.6
333.29 K, Liquid	983.8
334.33 K, Liquid	984.4
335.08 K, Liquid	985.6
336.23 K, Liquid	986.1
336.87 K, Liquid	986.7
338.13 K, Liquid	988.5
338.66 K, Liquid	989.1
340 K, Liquid	990
340.03 K, Liquid	990.3
340.45 K, Liquid	990.3
341.93 K, Liquid	991.4
342.24 K, Liquid	992
343.84 K, Liquid	993.8
344.04 K, Liquid	993.2
345.74 K, Liquid	995
345.83 K, Liquid	995
347.62 K, Liquid	997.3
347.64 K, Liquid	996.7
349.41 K, Liquid	998.5
349.55 K, Liquid	999.7
350 K, Liquid	1000
351.2 K, Liquid	1000
351.45 K, Liquid	1001
353 K, Liquid	1003
353.35 K, Liquid	1003
354.79 K, Liquid	1004
355.25 K, Liquid	1006
356.58 K, Liquid	1007
357.16 K, Liquid	1007
358.37 K, Liquid	1009
359.06 K, Liquid	1009
360 K, Liquid	1010
360.16 K, Liquid	1011
360.96 K, Liquid	1011
361.95 K, Liquid	1013
362.86 K, Liquid	1013
363.74 K, Liquid	1014
364.75 K, Liquid	1015
365.52 K, Liquid	1016
366.65 K, Liquid	1018
367.31 K, Liquid	1018
368.55 K, Liquid	1020
370 K, Liquid	1022

Reference: the NIST ThermoML archive (doi:10.1016/j.jct.2016.02.009)
